Source: the NIST ThermoML archive (doi:10.1016/j.fluid.2016.02.009)

Conditions: Liquid, Vibrating tube method

CCCCOCC [butyl ethyl ether]
Conditions | mass density [kg/m3]
283.15 K, 100 kPa | 759.63
283.15 K, 5000 kPa | 764.45
283.15 K, 10000 kPa | 768.96
283.15 K, 15000 kPa | 773.2
283.15 K, 20000 kPa | 777.2
283.15 K, 25000 kPa | 781.05
283.15 K, 30000 kPa | 784.72
283.15 K, 35000 kPa | 788.24
283.15 K, 40000 kPa | 791.65
283.15 K, 45000 kPa | 794.97
283.15 K, 50000 kPa | 798.13
283.15 K, 55000 kPa | 801.25
283.15 K, 60000 kPa | 804.23
283.15 K, 65000 kPa | 807.14
288.15 K, 100 kPa | 754.84
288.15 K, 5000 kPa | 759.82
288.15 K, 10000 kPa | 764.48
288.15 K, 15000 kPa | 768.83
288.15 K, 20000 kPa | 772.96
288.15 K, 25000 kPa | 776.9
288.15 K, 30000 kPa | 780.66
288.15 K, 35000 kPa | 784.28
288.15 K, 40000 kPa | 787.77
288.15 K, 45000 kPa | 791.13
288.15 K, 50000 kPa | 794.37
288.15 K, 55000 kPa | 797.51
288.15 K, 60000 kPa | 800.57
288.15 K, 65000 kPa | 803.54
293.15 K, 100 kPa | 750.02
293.15 K, 5000 kPa | 755.18
293.15 K, 10000 kPa | 759.98
293.15 K, 15000 kPa | 764.45
293.15 K, 20000 kPa | 768.69
293.15 K, 25000 kPa | 772.75
293.15 K, 30000 kPa | 776.62
293.15 K, 35000 kPa | 780.33
293.15 K, 40000 kPa | 783.87
293.15 K, 45000 kPa | 787.34
293.15 K, 50000 kPa | 790.66
293.15 K, 55000 kPa | 793.86
293.15 K, 60000 kPa | 796.96
293.15 K, 65000 kPa | 799.99
298.15 K, 100 kPa | 745.17
298.15 K, 5000 kPa | 750.51
298.15 K, 10000 kPa | 755.44
298.15 K, 15000 kPa | 760.05
298.15 K, 20000 kPa | 764.43
298.15 K, 25000 kPa | 768.58
298.15 K, 30000 kPa | 772.55
298.15 K, 35000 kPa | 776.36
298.15 K, 40000 kPa | 780.01
298.15 K, 45000 kPa | 783.52
298.15 K, 50000 kPa | 786.91
298.15 K, 55000 kPa | 790.19
298.15 K, 60000 kPa | 793.36
298.15 K, 65000 kPa | 796.44
303.15 K, 100 kPa | 740.3
303.15 K, 5000 kPa | 745.81
303.15 K, 10000 kPa | 750.9
303.15 K, 15000 kPa | 755.66
303.15 K, 20000 kPa | 760.15
303.15 K, 25000 kPa | 764.45
303.15 K, 30000 kPa | 768.49
303.15 K, 35000 kPa | 772.35
303.15 K, 40000 kPa | 776.1
303.15 K, 45000 kPa | 779.71
303.15 K, 50000 kPa | 783.18
303.15 K, 55000 kPa | 786.51
303.15 K, 60000 kPa | 789.75
303.15 K, 65000 kPa | 792.89
308.15 K, 100 kPa | 735.39
308.15 K, 5000 kPa | 741.09
308.15 K, 10000 kPa | 746.35
308.15 K, 15000 kPa | 751.24
308.15 K, 20000 kPa | 755.87
308.15 K, 25000 kPa | 760.26
308.15 K, 30000 kPa | 764.45
308.15 K, 35000 kPa | 768.44
308.15 K, 40000 kPa | 772.26
308.15 K, 45000 kPa | 775.95
308.15 K, 50000 kPa | 779.48
308.15 K, 55000 kPa | 782.89
308.15 K, 60000 kPa | 786.19
308.15 K, 65000 kPa | 789.36
313.15 K, 100 kPa | 730.45
313.15 K, 5000 kPa | 736.34
313.15 K, 10000 kPa | 741.76
313.15 K, 15000 kPa | 746.82
313.15 K, 20000 kPa | 751.59
313.15 K, 25000 kPa | 756.09
313.15 K, 30000 kPa | 760.38
313.15 K, 35000 kPa | 764.5
313.15 K, 40000 kPa | 768.36
313.15 K, 45000 kPa | 772.14
313.15 K, 50000 kPa | 775.74
313.15 K, 55000 kPa | 779.22
313.15 K, 60000 kPa | 782.57
313.15 K, 65000 kPa | 785.85
318.15 K, 100 kPa | 725.44
318.15 K, 5000 kPa | 731.57
318.15 K, 10000 kPa | 737.2
318.15 K, 15000 kPa | 742.41
318.15 K, 20000 kPa | 747.31
318.15 K, 25000 kPa | 751.96
318.15 K, 30000 kPa | 756.38
318.15 K, 35000 kPa | 760.54
318.15 K, 40000 kPa | 764.55
318.15 K, 45000 kPa | 768.4
318.15 K, 50000 kPa | 772.07
318.15 K, 55000 kPa | 775.65
318.15 K, 60000 kPa | 779.08
318.15 K, 65000 kPa | 782.35
323.15 K, 100 kPa | 720.43
323.15 K, 5000 kPa | 726.77
323.15 K, 10000 kPa | 732.59
323.15 K, 15000 kPa | 738
323.15 K, 20000 kPa | 743.03
323.15 K, 25000 kPa | 747.78
323.15 K, 30000 kPa | 752.29
323.15 K, 35000 kPa | 756.59
323.15 K, 40000 kPa | 760.68
323.15 K, 45000 kPa | 764.61
323.15 K, 50000 kPa | 768.4
323.15 K, 55000 kPa | 771.97
323.15 K, 60000 kPa | 775.47
323.15 K, 65000 kPa | 778.87
328.15 K, 100 kPa | 715.37
328.15 K, 5000 kPa | 721.95
328.15 K, 10000 kPa | 727.94
328.15 K, 15000 kPa | 733.52
328.15 K, 20000 kPa | 738.72
328.15 K, 25000 kPa | 743.64
328.15 K, 30000 kPa | 748.27
328.15 K, 35000 kPa | 752.68
328.15 K, 40000 kPa | 756.87
328.15 K, 45000 kPa | 760.88
328.15 K, 50000 kPa | 764.73
328.15 K, 55000 kPa | 768.42
328.15 K, 60000 kPa | 771.99
328.15 K, 65000 kPa | 775.41
333.15 K, 100 kPa | 710.26
333.15 K, 5000 kPa | 717.05
333.15 K, 10000 kPa | 723.28
333.15 K, 15000 kPa | 729.03
333.15 K, 20000 kPa | 734.4
333.15 K, 25000 kPa | 739.43
333.15 K, 30000 kPa | 744.2
333.15 K, 35000 kPa | 748.71
333.15 K, 40000 kPa | 753.02
333.15 K, 45000 kPa | 757.13
333.15 K, 50000 kPa | 761.02
333.15 K, 55000 kPa | 764.8
333.15 K, 60000 kPa | 768.41
333.15 K, 65000 kPa | 771.92
